According to patent EP0973746B1, “SUBSTITUTED 3-CYANO QUINOLINES” (Wyeth Holdings Corporation, priority 1997, dated 1998):
Values after ≈ are worked out from the molar mass of the structure shown. Where two headings read alike, the source gives them in different places.

Tests used:
[1] = tested on: CX1; experiment: Inhibition of cancer cell growth as measured by cell number, CX1; type: cell-based; settings: Homo sapiens, read-out: IC50 CX1
[2] = tested on: SW948; experiment: Inhibition of cancer cell growth as measured by cell number, SW948; type: cell-based; settings: Homo sapiens, read-out: IC50 SW948
[3] = tested on: PC3; experiment: Inhibition of cancer cell growth as measured by cell number, PC3; type: cell-based; settings: Homo sapiens, read-out: IC50 PC3
[4] = molecular target: epidermal growth factor receptor kinase (Homo sapiens, UniProt P00533); experiment: biochemical
[5] = tested on: A431; experiment: Inhibition of cancer cell growth as measured by cell number, A431; type: cell-based, human; settings: Homo sapiens, A-431, 48 h, Table 6;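 note: human A431 line, picked because it overexpresses epidermal growth factor receptor (EGFR)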
Description: (§1) The cell lines were chosen since they overexpressed epidermal growth factor receptor (EGFR) (i.e. A431) or HER2/neu (SKBR3), or had little to no expression of the these receptors (SW620, LOX, MCF7).

[6] = tested on: LX1; experiment: Inhibition of cancer cell growth as measured by cell number, LX1; type: cell-based; settings: Homo sapiens, read-out: IC50 LX1
[7] = tested on: A2780DDP; experiment: Inhibition of cancer cell growth as measured by cell number, A2780DDP; type: cell-based; settings: Homo sapiens, read-out: IC50 A2780DDP
[8] = tested on: COLO205; experiment: Inhibition of cancer cell growth as measured by cell number, COLO205; type: cell-based; settings: Homo sapiens, read-out: IC50 COLO205
[9] = tested on: NEC; experiment: Inhibition of cancer cell growth as measured by cell number, NEC; type: cell-based; settings: Homo sapiens, read-out: IC50 NEC
[10] = tested on: CCRF-CFM; experiment: Inhibition of cancer cell growth as measured by cell number, CCRF-CFM; type: cell-based; settings: Homo sapiens, read-out: IC50 CCRF-CFM
[11] = tested on: LNCAP; experiment: Inhibition of cancer cell growth as measured by cell number, LNCAP; type: cell-based; settings: Homo sapiens
[12] = tested on: CACO2; experiment: Inhibition of cancer cell growth as measured by cell number, CACO2; type: cell-based; settings: Homo sapiens, read-out: IC50 CACO2
[13] = tested on: T47D; experiment: Inhibition of cancer cell growth as measured by cell number, T47D; type: cell-based; settings: Homo sapiens
[14] = tested on: MIP; experiment: Inhibition of cancer cell growth as measured by cell number, MIP; type: cell-based; settings: Homo sapiens; cell number, Sulforhodamine B, 48 hours exposure; Table 4; read-out: IC50 MIP
[15] = tested on: human epidermoid tumors (A431); experiment: In vivo inhibition of the growth of human epidermoid tumors (A431); settings: 80 mg/kg administered on days 1, 5, and 9, IP
Summary of the method: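 Female BALB/c nu/nu mice from Charles River were injected subcutaneously with 5 X 10^6 human epidermoid (A431) tumor cells. Once tumors weighed 100 to 150 mg, animals were randomized into treatment groups on day zero, and untreated controls were included. Tumor mass, calculated as (length X width^2)/2, was measured every 7 days for 28 days after staging. Relative growth was mean mass on days 7, 14, 21 and 28 divided by the day-zero mean.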

[16] = tested on: CCL228; experiment: Inhibition of cancer cell growth as measured by cell number, CCL228; type: cell-based; settings: Homo sapiens, read-out: IC50 CCL228
[17] = tested on: DU145; experiment: Inhibition of cancer cell growth as measured by cell number, DU145; type: cell-based; settings: Homo sapiens, read-out: IC50 DU145
[18] = tested on: HCT15; experiment: Inhibition of cancer cell growth as measured by cell number, HCT15; type: cell-based; settings: Homo sapiens, read-out: IC50 HCT15
[19] = tested on: LOX; experiment: Inhibition of cancer cell growth as measured by cell number, LOX; type: cell-based, human; settings: Homo sapiens, LOX, 48 h, Table 6;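 note: LOX cells served as a line with low or absent EGFR and HER2/neu expression, in contrast to receptor-overexpressing lines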
Description: as §1

[20] = tested on: A27805; experiment: Inhibition of cancer cell growth as measured by cell number, A27805; type: cell-based; settings: Homo sapiens, read-out: IC50 A27805
[21] = tested on: A549; experiment: Inhibition of cancer cell growth as measured by cell number, A549; type: cell-based; settings: Homo sapiens, read-out: IC50 A549
[22] = tested on: HL60; experiment: Inhibition of cancer cell growth as measured by cell number, HL60; type: cell-based; settings: Homo sapiens, read-out: IC50 HL60
[23] = tested on: SW620; experiment: Inhibition of cancer cell growth as measured by cell number, SW620; type: cell-based, human; settings: Homo sapiens, SW-620, 48 h, Table 4;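 note: SW620 was included as a cell line with little or no EGFR or HER2/neu expression, in contrast to receptor-overexpressing lines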
Description: as §1

[24] = tested on: A431; experiment: Inhibition of cell growth by incorporation of [3H]-thymidine, A431; type: cell-based, human; settings: Homo sapiens
Protocol: (§2) Representative compounds of this invention were evaluated for their ability to inhibit the growth of the cell lines described below in vitro. The inhibition is quantitated by measuring the decrease in the incorporation of radio-labeled thymidine when the cells are grown in the presence of the inhibitor. […] Cells were routinely grown in a humidified incubator in 5% CO2 in air.
(§3) Cells were seeded at 10,000 cells/well in 96 well plates in complete media and allowed to grow to log phase. At this stage the complete media was replaced with media containing 0.5% FBS (for cells growing in 10% FBS) or media lacking epidermal growth factor (EGF) (for cells growing in serum free media). […] Media with test compound was then removed and complete media was added back. The cells were allowed to grow for 18 hours. This is followed by incubation in [^3H]thymidine (1mCi/ml in serum/EGF media) for 4 hours. Cells were lysed in 0.5 M NaOH for at least 30 min at 37°C and radioactivity analyzed.
(§4) The % inhibition of the compound evaluated was determined for at least three different concentrations and the IC50 value evaluated from the dose response curve. […] CPM(control) is in units of counts per minute and is a number expressing the amount of [^3H]thymidine incorporated onto the DNA when cells are grown in the absence of test compound as measured by liquid scintillation counting.

[25] = tested on: NHEK; experiment: Inhibition of cell growth by incorporation of [3H]-thymidine, NHEK; type: cell-based, human; settings: Homo sapiens, read-out: IC50 NHEK
Protocol: as §2, §3, §4

[26] = tested on: B7474; experiment: Inhibition of cancer cell growth as measured by cell number, B7474; type: cell-based; settings: Homo sapiens, read-out: IC50 B7474
[27] = tested on: MCF7; experiment: Inhibition of cancer cell growth as measured by cell number, MCF7; type: cell-based, human; settings: Homo sapiens, MCF7, 48 h, read-out: IC50 MCF7, cell number, Sulforhodamine B, 48 hours exposure; Table 5;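 note: MCF7 was included as a line with little or no EGFR or HER2/neu expression, in contrast to the receptor-overexpressing lines of the panel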
Description: as §1

[28] = tested on: LS174T; experiment: Inhibition of cancer cell growth as measured by cell number, LS174T; type: cell-based; settings: Homo sapiens
[29] = tested on: HTB161; experiment: Inhibition of cancer cell growth as measured by cell number, HTB161; type: cell-based; settings: Homo sapiens, read-out: IC50 HTB161
[30] = molecular target: recombinant human MEK 1 (MAPKK) and recombinant human ERK2 (MAPK); experiment: Mitogen Activated Protein Kinase (MAPK) assay, two component coupled MEK 1 / ERK2; type: biochemical; settings: separate entries for the same compound = evaluated more than one time;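 note: MEK 1-activated ERK2 phosphorylates MBP or Myc peptide with 33P-ATP, filter capture and scintillation counting, inhibitor preincubated with ERK2 30 min at 0 °C, inhibition relative to uninhibited control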
[31] = tested on: SKBR3; experiment: Inhibition of cancer cell growth as measured by cell number, SKBR3; type: cell-based, human; settings: Homo sapiens, SK-BR-3, 48 h, read-out: IC50 SKBR3, cell number, Sulforhodamine B, 48 hours exposure; Table 7;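 note: SK-BR-3 cells were selected as a line overexpressing HER2/neu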
Description: as §1

[32] = tested on: SKBR3; experiment: Inhibition of cell growth by incorporation of [3H]-thymidine, SKBR3; type: cell-based, human; settings: Homo sapiens, SK-BR-3, [3H]-thymidine incorporation
Protocol: as §2, §3, §4

[33] = tested on: NEU-3T3; experiment: Inhibition of cell growth by incorporation of [3H]-thymidine, Neu-3T3; type: cell-based, mouse; settings: Mus musculus, [3H]-thymidine incorporation
Protocol: as §2, §3, §4

[34] = cell number, Sulforhodamine B, 48 hours exposure, Table 4
[35] = cell number, Sulforhodamine B, 48 hours exposure, Table 6

epidermal growth factor receptor kinase, sequence (P00533 25-1210): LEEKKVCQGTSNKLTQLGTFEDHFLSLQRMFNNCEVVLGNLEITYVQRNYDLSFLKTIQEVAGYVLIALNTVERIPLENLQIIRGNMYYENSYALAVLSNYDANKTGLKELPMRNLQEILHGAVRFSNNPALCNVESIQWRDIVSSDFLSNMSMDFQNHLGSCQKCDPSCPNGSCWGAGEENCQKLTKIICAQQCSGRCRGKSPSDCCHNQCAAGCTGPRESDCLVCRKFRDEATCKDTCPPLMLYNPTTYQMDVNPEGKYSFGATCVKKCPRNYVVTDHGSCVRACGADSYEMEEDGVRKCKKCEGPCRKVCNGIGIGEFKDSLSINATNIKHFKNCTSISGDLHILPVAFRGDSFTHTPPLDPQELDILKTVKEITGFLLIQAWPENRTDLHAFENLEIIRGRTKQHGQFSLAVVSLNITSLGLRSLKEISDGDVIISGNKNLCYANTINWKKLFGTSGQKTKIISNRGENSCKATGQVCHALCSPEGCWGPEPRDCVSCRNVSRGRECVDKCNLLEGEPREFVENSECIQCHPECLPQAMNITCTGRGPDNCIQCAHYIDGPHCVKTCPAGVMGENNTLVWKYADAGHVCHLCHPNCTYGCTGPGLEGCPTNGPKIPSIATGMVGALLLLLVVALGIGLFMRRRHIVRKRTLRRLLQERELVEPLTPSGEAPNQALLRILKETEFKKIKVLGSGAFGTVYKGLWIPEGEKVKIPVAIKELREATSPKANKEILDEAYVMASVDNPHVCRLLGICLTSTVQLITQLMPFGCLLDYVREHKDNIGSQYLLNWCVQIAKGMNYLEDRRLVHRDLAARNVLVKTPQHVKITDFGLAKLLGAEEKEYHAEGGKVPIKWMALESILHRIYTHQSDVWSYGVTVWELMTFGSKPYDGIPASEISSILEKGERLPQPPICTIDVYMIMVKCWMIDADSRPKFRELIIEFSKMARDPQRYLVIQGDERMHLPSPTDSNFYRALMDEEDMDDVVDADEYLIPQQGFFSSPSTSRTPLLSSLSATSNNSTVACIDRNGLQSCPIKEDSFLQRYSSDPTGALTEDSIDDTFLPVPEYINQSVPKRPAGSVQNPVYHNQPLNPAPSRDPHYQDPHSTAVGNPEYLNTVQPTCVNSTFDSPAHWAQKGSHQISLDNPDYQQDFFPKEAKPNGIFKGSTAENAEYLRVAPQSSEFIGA

SMILES: C=CC(=O)Nc1ccc2ncc(C#N)c(Nc3cccc(Br)c3)c2c1 [Example 18, N-[4-[(3-Bromophenyl)amino]-3-cyano-6-quinolinyl]-2-propenamide]
- IC50 ([1]; CX-1, 48 h): 1.56 µg/mL (≈ 3.97 µM)
- IC50 ([2]; SW948, 48 h): 1.94 µg/mL (≈ 4.93 µM)
- IC50 ([3]; PC-3, 48 h): 2.35 µg/mL (≈ 5.97 µM)
- IC50 [4]: 0.021 nM
- IC50 ([5]; read-out: IC50 A431, cell number, Sulforhodamine B, 48 hours exposure): 0.249 µg/mL (≈ 0.633 µM)
- IC50 ([6]; LX-1, 48 h): 1.12 µg/mL (≈ 2.84 µM)
- IC50 ([7]; 48 h): 0.884 µg/mL (≈ 2.25 µM)
- IC50 ([8]; COLO 205, 48 h): 1.9 µg/mL (≈ 4.84 µM)
- IC50 ([9]; 48 h): 1.41 µg/mL (≈ 3.6 µM)
- IC50 ([10]; 48 h): 1.04 µg/mL (≈ 2.64 µM)
- IC50 ([11]; 48 h, read-out: IC50 LNCAP): 0.146 µg/mL (≈ 0.372 µM)
- IC50 ([12]; Caco-2, 48 h): 0.576 µg/mL (≈ 1.46 µM)
- IC50 ([13]; 48 h, read-out: IC50 T47D): 1.31 µg/mL (≈ 3.34 µM)
- IC50 [14]: 1.47 µg/mL (≈ 3.74 µM)
- reduced tumor size ([15]; day 7): 29%
- reduced tumor size ([15]; day 14, p <0.01): 45%
- Tumor growth versus control ([15]; days 21 and 28): not reduced versus control
- IC50 ([16]; 48 h): 1.17 µg/mL (≈ 2.98 µM)
- IC50 ([17]; DU-145, 48 h): 0.322 µg/mL (≈ 0.818 µM)
- IC50 ([18]; HCT-15, 48 h): 1.67 µg/mL (≈ 4.25 µM)
- IC50 ([19]; read-out: IC50 LOX, cell number, Sulforhodamine B, 48 hours exposure): 0.0851 µg/mL (≈ 0.216 µM)
- IC50 ([20]; 48 h): 0.628 µg/mL (≈ 1.6 µM)
- IC50 ([21]; A549, 48 h): 1.61 µg/mL (≈ 4.1 µM)
- IC50 ([22]; HL-60, 48 h): 1.43 µg/mL (≈ 3.63 µM)
- IC50 ([23]; read-out: IC50 SW620, cell number, Sulforhodamine B, 48 hours exposure): 1.4 µg/mL (≈ 3.55 µM)
- IC50 ([24]; A-431, read-out: IC50 A431): 0.01 nM
- IC50 [25]: 7 nM
- IC50 ([26]; 48 h): 0.152 µg/mL (≈ 0.387 µM)
- IC50 [27]: 2.17 µg/mL (≈ 5.52 µM)
- IC50 ([28]; 48 h, read-out: IC50 LS174T): 1.59 µg/mL (≈ 4.05 µM)
- IC50 ([29]; 48 h): 0.415 µg/mL (≈ 1.05 µM)
- IC50 [30]: > 100000 nM
- IC50 [31]: 1.85 µg/mL (≈ 4.71 µM)

SMILES: CC#CC(=O)Nc1ccc2ncc(C#N)c(Nc3ccc(Br)c(Br)c3)c2c1 [Example 22, N-[4-[(3,4-dibromophenyl)amino]-3-cyano-6-quinolinyl]-2-butynamide]
- IC50 ([1]; CX-1, cell number, Sulforhodamine B, 48 hours exposure, Table 4): 0.775 µg/mL (≈ 1.6 µM)
- IC50 ([2]; SW948, cell number, Sulforhodamine B, 48 hours exposure, Table 5): 0.593 µg/mL (≈ 1.23 µM)
- IC50 ([3]; PC-3, cell number, Sulforhodamine B, 48 hours exposure, Table 7): 0.695 µg/mL (≈ 1.44 µM)
- IC50 [4]: 3000 nM
- IC50 ([5]; cell number, Sulforhodamine B, 48 hours exposure, read-out: IC50 A431): 0.0443 µg/mL (≈ 0.0915 µM)
- IC50 ([6]; LX-1, cell number, Sulforhodamine B, 48 hours exposure, Table 6): 0.81 µg/mL (≈ 1.67 µM)
- IC50 [7, 34]: 0.211 µg/mL (≈ 0.436 µM)
- IC50 ([8]; COLO 205, cell number, Sulforhodamine B, 48 hours exposure, Table 4): 4.3 µg/mL (≈ 8.89 µM)
- IC50 [9, 35]: 0.492 µg/mL (≈ 1.02 µM)
- IC50 [32]: > 50000 nM
- IC50 ([10]; cell number, Sulforhodamine B, 48 hours exposure, Table 7): 0.403 µg/mL (≈ 0.833 µM)
- IC50 ([11]; cell number, Sulforhodamine B, 48 hours exposure, Table 7, read-out: IC50 LNCAP): 0.722 µg/mL (≈ 1.49 µM)
- IC50 ([12]; Caco-2, cell number, Sulforhodamine B, 48 hours exposure, Table 5): 0.475 µg/mL (≈ 0.982 µM)
- IC50 ([13]; cell number, Sulforhodamine B, 48 hours exposure, Table 6, read-out: IC50 T47D): 0.704 µg/mL (≈ 1.45 µM)
- IC50 [33]: > 50000 nM
- IC50 [14]: 0.378 µg/mL (≈ 0.782 µM)
- IC50 ([16]; cell number, Sulforhodamine B, 48 hours exposure, Table 5): 0.255 µg/mL (≈ 0.527 µM)
- IC50 ([17]; DU-145, cell number, Sulforhodamine B, 48 hours exposure, Table 7): 0.265 µg/mL (≈ 0.548 µM)
- IC50 ([18]; HCT-15, cell number, Sulforhodamine B, 48 hours exposure, Table 5): 0.372 µg/mL (≈ 0.769 µM)
- IC50 ([19]; cell number, Sulforhodamine B, 48 hours exposure, read-out: IC50 LOX): 0.0225 µg/mL (≈ 0.0465 µM)
- IC50 [20, 34]: 0.0567 µg/mL (≈ 0.117 µM)
- IC50 ([21]; A549, cell number, Sulforhodamine B, 48 hours exposure, Table 6): 0.375 µg/mL (≈ 0.775 µM)
- IC50 ([22]; HL-60, cell number, Sulforhodamine B, 48 hours exposure, Table 7): 0.608 µg/mL (≈ 1.26 µM)
- IC50 ([23]; cell number, Sulforhodamine B, 48 hours exposure, read-out: IC50 SW620): 0.526 µg/mL (≈ 1.09 µM)
- IC50 ([24]; A-431, [3H]-thymidine incorporation, A431, read-out: IC50 A431): 150 nM
- IC50 ([25]; [3H]-thymidine incorporation): 35 nM
- IC50 [26, 35]: 0.314 µg/mL (≈ 0.648 µM)
- IC50 ([28]; cell number, Sulforhodamine B, 48 hours exposure, Table 5, read-out: IC50 LS174T): 0.847 µg/mL (≈ 1.75 µM)
- IC50 [29, 34]: 0.248 µg/mL (≈ 0.512 µM)
